Source: paper PMC8085340, “Inhibiting Pyridoxal Kinase of Entamoeba histolytica Is Lethal for This Pathogen” (Frontiers in Cellular and Infection Microbiology, 2021)

Target: T1, EhPLK (pyridoxal kinase) (Entamoeba histolytica, UniProt C4LVZ4)
T1 construct: gene EHI_126090; recombinant histidine-tagged EhPLK
T1 sequence (C4LVZ4 1-279): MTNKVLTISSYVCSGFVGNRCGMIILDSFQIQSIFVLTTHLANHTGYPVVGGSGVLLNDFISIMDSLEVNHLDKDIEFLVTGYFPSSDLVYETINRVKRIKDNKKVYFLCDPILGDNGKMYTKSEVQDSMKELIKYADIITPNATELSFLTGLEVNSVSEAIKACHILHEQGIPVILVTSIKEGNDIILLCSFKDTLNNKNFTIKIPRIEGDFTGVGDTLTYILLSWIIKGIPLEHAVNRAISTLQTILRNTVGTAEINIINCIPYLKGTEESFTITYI
Assay: spectrophotometric PLP formation assay at […] nm with purified enzyme; partial inhibition (maximum […])
Type: biochemical

Compound | IC50 [µM]
O=S1(=O)CCCN1c1ccc(Nc2ncnc3ccsc23)cc1 [compound 1, N-[4-(1,1-dioxo-1,2-thiazolidin-2-yl)phenyl]thieno[3,2-d]pyrimidin-4-amine] | ~250
O=S1(=O)CCCN1c1ccc(Nc2ncnc3sccc23)cc1 [compound 2, N-[4-(1,1-dioxo-1,2-thiazolidin-2-yl)phenyl]thieno[2,3-d]pyrimidin-4-amine] | ~100
